In publication PMC3569039 (Bioorganic & medicinal chemistry letters, 2011):

Test system: HeLa cells

Fluo-3
cellular debris in treated cells (apparent cytotoxicity): significant amount of cellular debris
